Measurements published in PubChem BioAssay (NCI).
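Each compound was tested at five concentrations against cells in 96-well plates for 48 hours. TGI: total growth inhibition.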

What follows are compounds tested on SW-620 colon (assay: DTP human tumour cell line panel, 48 h).

Row | SMILES | TGI [µM]
1 | OCCOCCO/N=C1\C(c2c(O)[nH]c3ccccc23)=Nc2ccccc21 | > 100
2 | Cc1nc2ccccc2c(=O)n1NC(=O)c1ccc(N)cc1 | > 100

The compounds below were run on NCI-H460 lung (assay: DTP human tumour cell line panel, 48 h).

Row | SMILES | TGI [µM]
3 | CCc1c(-c2ccccc2)[nH]c2ccccc2c1=O | > 100
4 | Oc1ccc(-c2nc3ccc(F)cc3s2)cc1 | 59
5 | COc1ccc(NC(C)=O)cc1N1C(=O)/C(=C\c2cccc(Oc3ccccc3)c2)S(=O)(=O)C1c1ccccc1 (configuration not stated) | > 100
6 | OCCOCCO/N=C1\C(c2c(O)[nH]c3ccccc23)=Nc2ccccc21 | 15.3
7 | Cc1nc2ccccc2c(=O)n1NC(=O)c1ccc(N)cc1 | > 100

Each compound was assayed on OVCAR-5 ovarian (assay: DTP human tumour cell line panel, 48 h).

Row | SMILES | TGI [µM]
8 | CCc1c(-c2ccccc2)[nH]c2ccccc2c1=O | > 100
9 | Oc1ccc(-c2nc3ccc(F)cc3s2)cc1 | 44.7
10 | COc1ccc(NC(C)=O)cc1N1C(=O)/C(=C\c2cccc(Oc3ccccc3)c2)S(=O)(=O)C1c1ccccc1 (configuration not stated) | > 100
11 | OCCOCCO/N=C1\C(c2c(O)[nH]c3ccccc23)=Nc2ccccc21 | 20.5
12 | Cc1nc2ccccc2c(=O)n1NC(=O)c1ccc(N)cc1 | > 100

What follows are compounds tested on MOLT-4 leukemia (assay: DTP human tumour cell line panel, 48 h).

Row | SMILES | TGI [µM]
13 | CCc1c(-c2ccccc2)[nH]c2ccccc2c1=O | > 100
14 | Oc1ccc(-c2nc3ccc(F)cc3s2)cc1 | > 100
15 | COc1ccc(NC(C)=O)cc1N1C(=O)/C(=C\c2cccc(Oc3ccccc3)c2)S(=O)(=O)C1c1ccccc1 (configuration not stated) | 59
16 | OCCOCCO/N=C1\C(c2c(O)[nH]c3ccccc23)=Nc2ccccc21 | > 100
17 | Cc1nc2ccccc2c(=O)n1NC(=O)c1ccc(N)cc1 | > 100

Each compound was assayed on HT29 colon (assay: DTP human tumour cell line panel, 48 h).

Row | SMILES | TGI [µM]
18 | CCc1c(-c2ccccc2)[nH]c2ccccc2c1=O | > 100
19 | Oc1ccc(-c2nc3ccc(F)cc3s2)cc1 | 31.3
20 | COc1ccc(NC(C)=O)cc1N1C(=O)/C(=C\c2cccc(Oc3ccccc3)c2)S(=O)(=O)C1c1ccccc1 (configuration not stated) | 43.7
21 | OCCOCCO/N=C1\C(c2c(O)[nH]c3ccccc23)=Nc2ccccc21 | 7.11
22 | Cc1nc2ccccc2c(=O)n1NC(=O)c1ccc(N)cc1 | > 100

The compounds below were run on M14 melanoma (assay: DTP human tumour cell line panel, 48 h).

Row | SMILES | TGI [µM]
23 | CCc1c(-c2ccccc2)[nH]c2ccccc2c1=O | > 100
24 | Oc1ccc(-c2nc3ccc(F)cc3s2)cc1 | 37.3
25 | COc1ccc(NC(C)=O)cc1N1C(=O)/C(=C\c2cccc(Oc3ccccc3)c2)S(=O)(=O)C1c1ccccc1 (configuration not stated) | > 100
26 | OCCOCCO/N=C1\C(c2c(O)[nH]c3ccccc23)=Nc2ccccc21 | > 100
27 | Cc1nc2ccccc2c(=O)n1NC(=O)c1ccc(N)cc1 | > 100

What follows are compounds tested on KM12 colon (assay: DTP human tumour cell line panel, 48 h).

Row | SMILES | TGI [µM]
28 | CCc1c(-c2ccccc2)[nH]c2ccccc2c1=O | > 100
29 | Oc1ccc(-c2nc3ccc(F)cc3s2)cc1 | 33.8
30 | COc1ccc(NC(C)=O)cc1N1C(=O)/C(=C\c2cccc(Oc3ccccc3)c2)S(=O)(=O)C1c1ccccc1 (configuration not stated) | > 100
31 | OCCOCCO/N=C1\C(c2c(O)[nH]c3ccccc23)=Nc2ccccc21 | 14.1
32 | Cc1nc2ccccc2c(=O)n1NC(=O)c1ccc(N)cc1 | > 100

These compounds were tested on NCI-H23 lung (assay: DTP human tumour cell line panel, 48 h).

Row | SMILES | TGI [µM]
33 | CCc1c(-c2ccccc2)[nH]c2ccccc2c1=O | > 100
34 | Oc1ccc(-c2nc3ccc(F)cc3s2)cc1 | 48.3
35 | COc1ccc(NC(C)=O)cc1N1C(=O)/C(=C\c2cccc(Oc3ccccc3)c2)S(=O)(=O)C1c1ccccc1 (configuration not stated) | > 100
36 | OCCOCCO/N=C1\C(c2c(O)[nH]c3ccccc23)=Nc2ccccc21 | 29.3
37 | Cc1nc2ccccc2c(=O)n1NC(=O)c1ccc(N)cc1 | > 100

These compounds were tested on SK-OV-3 ovarian (assay: DTP human tumour cell line panel, 48 h).

Row | SMILES | TGI [µM]
38 | CCc1c(-c2ccccc2)[nH]c2ccccc2c1=O | > 100
39 | Oc1ccc(-c2nc3ccc(F)cc3s2)cc1 | 42.8
40 | COc1ccc(NC(C)=O)cc1N1C(=O)/C(=C\c2cccc(Oc3ccccc3)c2)S(=O)(=O)C1c1ccccc1 (configuration not stated) | > 100
41 | OCCOCCO/N=C1\C(c2c(O)[nH]c3ccccc23)=Nc2ccccc21 | 3.27
42 | Cc1nc2ccccc2c(=O)n1NC(=O)c1ccc(N)cc1 | > 100

The compounds below were run on K-562 leukemia (assay: DTP human tumour cell line panel, 48 h).

Row | SMILES | TGI [µM]
43 | CCc1c(-c2ccccc2)[nH]c2ccccc2c1=O | > 100
44 | Oc1ccc(-c2nc3ccc(F)cc3s2)cc1 | > 100
45 | COc1ccc(NC(C)=O)cc1N1C(=O)/C(=C\c2cccc(Oc3ccccc3)c2)S(=O)(=O)C1c1ccccc1 (configuration not stated) | 68.9
46 | OCCOCCO/N=C1\C(c2c(O)[nH]c3ccccc23)=Nc2ccccc21 | > 100
47 | Cc1nc2ccccc2c(=O)n1NC(=O)c1ccc(N)cc1 | > 100

Each compound was assayed on SN12C renal (assay: DTP human tumour cell line panel, 48 h).

Row | SMILES | TGI [µM]
48 | CCc1c(-c2ccccc2)[nH]c2ccccc2c1=O | > 100
49 | Oc1ccc(-c2nc3ccc(F)cc3s2)cc1 | 40.9
50 | COc1ccc(NC(C)=O)cc1N1C(=O)/C(=C\c2cccc(Oc3ccccc3)c2)S(=O)(=O)C1c1ccccc1 (configuration not stated) | 73
51 | OCCOCCO/N=C1\C(c2c(O)[nH]c3ccccc23)=Nc2ccccc21 | 17.9
52 | Cc1nc2ccccc2c(=O)n1NC(=O)c1ccc(N)cc1 | > 100

What follows are compounds tested on SR leukemia (assay: DTP human tumour cell line panel, 48 h).

Row | SMILES | TGI [µM]
53 | CCc1c(-c2ccccc2)[nH]c2ccccc2c1=O | > 100
54 | Oc1ccc(-c2nc3ccc(F)cc3s2)cc1 | 53.4
55 | COc1ccc(NC(C)=O)cc1N1C(=O)/C(=C\c2cccc(Oc3ccccc3)c2)S(=O)(=O)C1c1ccccc1 (configuration not stated) | 23.9
56 | OCCOCCO/N=C1\C(c2c(O)[nH]c3ccccc23)=Nc2ccccc21 | > 100
57 | Cc1nc2ccccc2c(=O)n1NC(=O)c1ccc(N)cc1 | > 100

Each compound was assayed on MCF7 breast (assay: DTP human tumour cell line panel, 48 h).

Row | SMILES | TGI [µM]
58 | CCc1c(-c2ccccc2)[nH]c2ccccc2c1=O | > 100
59 | Oc1ccc(-c2nc3ccc(F)cc3s2)cc1 | 59.1
60 | COc1ccc(NC(C)=O)cc1N1C(=O)/C(=C\c2cccc(Oc3ccccc3)c2)S(=O)(=O)C1c1ccccc1 (configuration not stated) | > 100
61 | OCCOCCO/N=C1\C(c2c(O)[nH]c3ccccc23)=Nc2ccccc21 | 9.73
62 | Cc1nc2ccccc2c(=O)n1NC(=O)c1ccc(N)cc1 | > 100

What follows are compounds tested on MDA-MB-435 (assay: DTP human tumour cell line panel, 48 h).

Row | SMILES | TGI [µM]
63 | CCc1c(-c2ccccc2)[nH]c2ccccc2c1=O | > 100
64 | Oc1ccc(-c2nc3ccc(F)cc3s2)cc1 | 41.5
65 | COc1ccc(NC(C)=O)cc1N1C(=O)/C(=C\c2cccc(Oc3ccccc3)c2)S(=O)(=O)C1c1ccccc1 (configuration not stated) | > 100
66 | OCCOCCO/N=C1\C(c2c(O)[nH]c3ccccc23)=Nc2ccccc21 | 27.8
67 | Cc1nc2ccccc2c(=O)n1NC(=O)c1ccc(N)cc1 | > 100
